Patent US20110250254A1, “ANTIMICROBIAL COMPOSITIONS AND USES” (priority 2008, published 2011)
Like-named read-outs stand apart in the source and are kept apart here.

Legend:
Assay type in all cases: cell-based
S. epidermidis [1] = test: Static biofilm model, safranine staining; settings: 6 h incubation, thiophenone 200 μmol/L coating
Description: (§1) According to the static biofilm model, a given thiophenone 200 μmol/L was dissolved in 500 μl absolute ethanol and applied to wells of a standard 24 well microtiter plate. The ethanol was evaporated from the wells in a laminar air sterile work bench at room temperature so as to leave a coating of the thiophenone in the well. A sample of bacteria was then added to the well and incubated for a given period of time. After incubation, the percentage of bacteria remaining was assessed by safranine staining of the biofilm. Bound safranine was released by acetic acid and optical density was measured in Synergy HT Multi-Detection Microplate Reader and compared to a control.

S. epidermidis [2] = test: Shaking biofilm model (200 rpm), safranine staining; settings: Staphylococcus epidermidis, read-out: Shaking biofilm model % Remaining
Description: as §1
According to the shaking biofilm model, the microtiter plates were shaken (200 rpm) in a Minitron Incubator Shaker during biofilm formation.

V. harveyi [3] = test: Biofilm formation on peggs, Calgary method; settings: for Effect on V. harveyi biofilm: in words
Description: (§2) Biofilm formation was measured in static cultures in wells of microtiter plates for S. epidermidis, or on “peggs” according to the Calgary method (The Calgary biofilm devices: New technology for rapid determination of antibiotic susceptibilities of bacterial biofilms. Ceri et al. J Clin Microbiol 1999:37:1771-1776) for V. harveyi. In both cases the safranin staining method was applied and optical density was measured at 530 nm for quantification of biofilm mass.

V. harveyi [4] = test: Planktonic growth in Low Binding Plates, OD 600 nm; settings: for Effect on V. harveyi planktonic growth: in words; for V. harveyi planktonic bacteria reduction: 100 μM
Description: (§3) Planktonic growth was determined in “Low Binding Plates” in which the bacteria form minimal amounts of biofilm The quantity is determined by optical density measurements at 600 nm.

S. epidermidis [5] = test: Planktonic growth in Low Binding Plates, OD 600 nm
Description: as §3

S. epidermidis [6] = test: Biofilm formation in static cultures in wells of microtiter plates
Description: as §2

S. epidermidis [7] = test: Static biofilm model on coated glass vials; settings: incubation time 5 h, coating on glass vial
Description: The materials of Example 3 were tested in a static biofilm model as follows.
Triplicate samples of a coating composition were applied to a glass vial in accordance with Table 2 set out below where each vial is given a number. Vials 1 to 12 are each loaded with 13 mg of the indicated material, followed by the addition of 1.0 mL dichloromethane. The dichloromethane was slowly evaporated under atmospheric pressure to leave a coating on the internal walls of the receptacles. Vials 13 to 18 were each loaded by adding 10 mg of the indicated material pre-dissolved in 10 mL dichloromethane. These vials were heated in an oven at 125° C. for 24 hours. To remove any residues of the dichloromethane solvent, all vials were dried at high vacuum (0.5 mmHg) for 2 hours at room temperature.
The biofilm was assessed as described in Example 2.
It is possible in the example of the copolymer of C and D that bacteria are killed in addition to the inhibition of biofilm formation. Similar results were obtained in a static biofilm model where S. epidermis bacteria were incubated over a time period of 5 hours.

marine bacteria [8] = test: Coated stainless steel, total counts of desorbed bacteria by epifluorescence microscopy; settings: 14 days at 20° C., median values vs no coating
Description: (§4) Biological testing of coated stainless steel substrates were performed in a static cultures of marine bacteria. The biofilm prevention efficiencies of the coatings were recorded as a) total enumeration of bacteria attached on the steel surfaces and b) most-probable number (MPN) viability testing of attached bacteria. The nature of the thiophenes (expecting to inhibit biofilm generation without being toxic to the bacteria) should account for inhibition of both total counts and viability counts when thiophene-coated surfaces were compared to non-treated controls.
(§5) Three samples of stainless steel substrates were prepared as described above, each of these in triplicate. […]
(§6) At the end of the experimental period (14 days) the steel surfaces were removed from the media and carefully washed in sterile and particle-free (filtered through […] sterile filters) seawater. […] Desorbed concentrations of bacteria were recorded by epifluorescence microscopy and by MPN-counts in MB medium.
(§7) For epifluorescence microscopy 10 ml desorbed samples were stained with 2 μg 3′5-diamino phenylindol (DAPI) and incubated for 5-10 minutes. The stained samples were filtered through 0.2 μm black polycarbonate filters and analysed in a fluorescence microscope at 1250× magnification. […] The plates were incubated at 20° C. for 5 days and positive growth recorded as turbidity in the wells. […]

marine bacteria [9] = test: Coated stainless steel, MPN viable counts of desorbed bacteria; settings: 14 days at 20° C., median values vs no coating
Description: as §4, §5, §6, §7

[10] = S. epidermidis, 20 h incubation

SMILES: CC(=O)O/C=C1/C=CC(=O)S1 [Thio104, (Z)-(5-oxothiophen-2(5H)-ylidene)methyl acetate]
- Static biofilm model % Remaining (S. epidermidis [1]): 34%
- activity at 200 µM (S. epidermidis [2]; 6 h): 106%
- activity at 200 µM (S. epidermidis [2]; 20 h): 103%

SMILES: COc1ccc(/C=C2/C=CC(=O)S2)s1 [Thio304, (Z)-5-((5-methoxythiophen-2-yl)methylene)thiophen-2(5H)-one]
- activity at 200 µM (S. epidermidis [2]; S. epidermidis, 6 h incubation): 72%
- activity at 200 µM (S. epidermidis [2]; [10]): 94%

SMILES: O=Cc1ccc(/C=C2/C=CC(=O)S2)s1 [Thio303, (Z)-5-((5-oxothiophen-2(5H)-ylidene)methyl)thiophene-2-carbaldehyde]
- activity at 200 µM (S. epidermidis [2]; S. epidermidis, 6 h incubation): 95%
- activity at 200 µM (S. epidermidis [2]; [10]): 91%

SMILES: COc1ccc(C2CSC(=O)C2)s1 (stereo not drawn)
- Effect on V. harveyi biofilm (V. harveyi [3]): No effect
- Effect on V. harveyi planktonic growth (V. harveyi [4]): No effect

SMILES: COc1ccc(CC2(CO)C=CC(=O)S2)s1 (stereo not drawn) [Thi401, 5-(hydroxymethyl)-5-((5-methoxythiophen-2-yl)methyl)thiophen-2(5H)-one]
- Static biofilm model % Remaining (S. epidermidis [1]): 51%
- activity at 200 µM (S. epidermidis [2]; S. epidermidis, 6 h incubation): 80%
- activity at 200 µM (S. epidermidis [2]; [10]): 94%

SMILES: O=C1C=C/C(=C(/Br)c2ccccc2)S1 [Thio112, (Z)-5-(bromo(phenyl)methylene) thiophen-2(5H)-one]
- activity at 200 µM (S. epidermidis [2]; S. epidermidis, 6 h incubation): 63%
- activity at 200 µM (S. epidermidis [2]; [10]): 59%

SMILES: O=C1C=C/C(=C/c2ccc(-c3cccs3)s2)S1 [Thio306, (Z)-5-(2,2′-bithiophen-5-ylmethylene) thiophen-2(5H)-one]
- Static biofilm model % Remaining (S. epidermidis [1]): 67%

SMILES: O=C1S/C(=C\Br)C=C1c1cccs1 [(Z)-5-(bromomethylene)-3-(thiophen-2-yl)thiophen-2(5H)-one]
- V. harveyi planktonic bacteria reduction (V. harveyi [4]): 30%

SMILES: N#CS/C=C1/C=CC(=O)S1
- V. harveyi biofilm reduction (V. harveyi [3]; 25 μM): 90%
- S. epidermis planktonic growth reduction (S. epidermidis [5]; concentrations from 25 μM): 70%
- V. harveyi planktonic reduction (V. harveyi [4]; 25 μM): 50%

SMILES: O=C1C=C/C(=C/c2ccccc2)S1 [Thio109, (Z)-5-benzylidenethiophen-2(5H)-one]
- activity at 200 µM (S. epidermidis [2]; S. epidermidis, 6 h incubation): 98%
- activity at 200 µM (S. epidermidis [2]; [10]): 107%

SMILES: O=C1SC(=C(Br)Br)C=C1Br [Thio108, 3-bromo-5-(dibromomethylene)thiophen-2(5H)-one]
- activity at 200 µM (S. epidermidis [2]; S. epidermidis, 6 h incubation): 1%
- activity at 200 µM (S. epidermidis [2]; [10]): 9%

SMILES: O=C1C=C/C(=C/c2cccs2)S1 [Thio301, (Z)-5-(thiophen-2-ylmethylene) thiophen-2(5H)-one]
- activity at 200 µM (S. epidermidis [2]; S. epidermidis, 6 h incubation): 80%
- activity at 200 µM (S. epidermidis [2]; [10]): 98%

SMILES: COc1ccc(C=C(Br)Br)s1 [Thio202, 2-(2,2-dibromovinyl)-5-methoxythiophene]
- activity at 200 µM (S. epidermidis [2]; S. epidermidis, 6 h incubation): 94%
- activity at 200 µM (S. epidermidis [2]; [10]): 103%

SMILES: O=C1C=CC(=C(Br)Br)S1 [Thio106, 5-(dibromomethylene)thiophen-2(5H)-one]
- activity at 200 µM (S. epidermidis [2]; S. epidermidis, 6 h incubation): 11%
- activity at 200 µM (S. epidermidis [2]; [10]): 27%

SMILES: COc1sc(/C=C2/C=CC(=O)S2)c(Br)c1Br [Thio305, (Z)-5-((3,4-dibromo-5-methoxythiophen-2-yl)methylene)thiophen-2(5H)-one]
- activity at 200 µM (S. epidermidis [2]; S. epidermidis, 6 h incubation): 66%
- activity at 200 µM (S. epidermidis [2]; [10]): 101%

SMILES: O=C1C=C/C(=C/I)S1
- V. harveyi biofilm reduction (V. harveyi [3]; 5 μM): 46%
- V. harveyi biofilm reduction (V. harveyi [3]; 10 μM): 80%
- V. harveyi biofilm reduction (V. harveyi [3]; 15 μM): 95%
- S. epidermis planktonic bacterial growth reduction (S. epidermidis [5]; 50 μM): 50%
- S. epidermis planktonic bacterial growth reduction (S. epidermidis [5]; 100 μM): 63%
- S. epidermis biofilm reduction (S. epidermidis [6]; 50 μM): 50%
- S. epidermis biofilm reduction (S. epidermidis [6]; 100 μM): 64%

SMILES: O=C1C=C/C(=C/c2ccc(Br)s2)S1 [Thio302, (Z)-5-((5-bromothiophen-2-yl)methylene)thiophen-2(5H)-one]
- activity at 200 µM (S. epidermidis [2]; S. epidermidis, 6 h incubation): 98%
- activity at 200 µM (S. epidermidis [2]; [10]): 101%

SMILES: O=C1S/C(=C\c2ccccc2)C=C1Br [Thio110, (Z)-5-benzylidene-3-bromothiophen-2(5H)-one]
- activity at 200 µM (S. epidermidis [2]; S. epidermidis, 6 h incubation): 30%
- activity at 200 µM (S. epidermidis [2]; [10]): 27%

SMILES: O=C1C=C/C(=C/C(Br)Br)S1 [Thio107, (Z)-5-(2,2-dibromoethylidene) thiophen-2(5H)-one]
- activity at 200 µM (S. epidermidis [2]; S. epidermidis, 6 h incubation): 77%
- activity at 200 µM (S. epidermidis [2]; [10]): 93%

SMILES: COc1ccc(C=O)s1 [Thio201, 5-methoxythiophene-2-carbaldehyde]
- Static biofilm model % Remaining (S. epidermidis [1]): 56%
- activity at 200 µM (S. epidermidis [2]; S. epidermidis, 6 h incubation): 81%
- activity at 200 µM (S. epidermidis [2]; [10]): 101%

SMILES: CCO[Si](CCCNC(=O)OCc1ccccc1)(OCC)OCC [Benzyl 3-(triethoxysilyl)propylcarbamate, reference compound]
- Static biofilm model % Remaining (S. epidermidis [7]): 100%

SMILES: O=C1C=C/C(=C/Cl)S1 [Thio103, (Z)-5-(chloromethylene) thiophen-2(5H)-one]
- Static biofilm model % Remaining (S. epidermidis [1]): 32%
- activity at 200 µM (S. epidermidis [2]; 6 h): 92%
- activity at 200 µM (S. epidermidis [2]; 20 h): 96%

SMILES: O=C1S/C(=C\Br)C=C1Br [Thio105, (Z)-3-bromo-5-(bromomethylene)thiophen-2(5H)-one]
- activity at 200 µM (S. epidermidis [2]; S. epidermidis, 6 h incubation): 20%
- activity at 200 µM (S. epidermidis [2]; [10]): 18%

SMILES: O=C1C=C/C(=C(\Br)c2ccccc2)S1 [Thio111, (E)-5-(bromo(phenyl)methylene) thiophen-2-(5H)-one]
- activity at 200 µM (S. epidermidis [2]; S. epidermidis, 6 h incubation): 63%
- activity at 200 µM (S. epidermidis [2]; [10]): 50%

SMILES: O=C1C=C/C(=C\Br)S1 [Thio102, (E)-5-(bromomethylene) thiophen-2(5H)-one]
- Static biofilm model % Remaining (S. epidermidis [1]): 95%
- activity at 200 µM (S. epidermidis [2]; S. epidermidis, 6 h incubation): 91%
- activity at 200 µM (S. epidermidis [2]; [10]): 103%

SMILES: CCO[Si](CCCNC(=O)OCC1=C/C(=C/Br)SC1=O)(OCC)OCC [Compound F, (Z)-(5-bromomethylene-2-oxo-2,5-dihydrothiopen-3-yl)methyl 3-(triethoxysilyl)propylcarbamate]
- Static biofilm model % Remaining (S. epidermidis [7]): 45%
- Inhibition of biofilm attachment (total counts) (marine bacteria [8]): ~80%
- Inhibition of viable attached bacteria (marine bacteria [9]): > 99%

SMILES: CCN(/C=C1/C=CC(=O)S1)CC
- Effect on V. harveyi biofilm (V. harveyi [3]): No effect
- Effect on V. harveyi planktonic growth (V. harveyi [4]): No effect

SMILES: O=C(O)CCC(=O)OCC1=C/C(=C/Br)SC1=O
- V. harveyi biofilm reduction (V. harveyi [3]; 5 μM): 17%
- V. harveyi biofilm reduction (V. harveyi [3]; 50 μM): 70%
- V. harveyi biofilm reduction (V. harveyi [3]; 100 μM): 85%
- V. harveyi planktonic bacteria reduction (V. harveyi [4]): 18%

SMILES: O=C1C=C/C(=C/Oc2ccc([N+](=O)[O-])cc2)S1
- Effect on S. epidermis planktonic growth (S. epidermidis [5]; in words): No effect
- Effect on S. epidermis biofilm (S. epidermidis [6]; in words): No effect
